Measured values reported in patent US20200397894A1, “COMPOSITIONS AND METHODS FOR TREATING CANCER” (University of Virginia Patent Foundation, priority 2016, published 2020).

Assays:
DM93 cells = test: Cell cycle distribution and rereplication by propidium iodide staining and FACS; format: cell-based, human
Protocol: The effects of pevonedistat, vemurafenib, and/or silencing of various cell cycle-associated proteins by siRNA on cell cycle distribution and rereplication were assessed by propidium iodide staining and flow cytometry of asynchronous melanoma cultures. Synchronization of cells was not employed to avoid bias and to be able to measure the impact of these perturbations on proliferating cancer cells. […] Cells were washed with cold PBS, harvested, and fixed in 70% (v/v) ethanol. Cells were subsequently treated with 20 μg of DNase-free RNase and stained with propidium iodide according to instructions of the manufacturer. Samples were analyzed on a FACSCAN™ (Becton, Dickinson and Company, Franklin Lakes, N.J., United States of America) and G0-G1, S, and G2-M fractions were segmented, and apoptotic (sub-G1 DNA content) and rereplicating (>G2/M DNA content) fractions were determined using FLOWJO® (FLOWJO, LLC, Ashland, Oreg., United States of America) and ModFit (Verity Software House, Topsham, Me., United States of America) software.

[1] = system: DM331 and SK-MEL-24 cells from PLX4720-resistant tumors; test: In vitro sensitivity of cells extracted ex vivo from PLX4720-resistant tumors; format: cell-based, human; conditions: DM331 and SK-MEL-24 cells extracted ex vivo
Protocol: Proliferation and viability of cultured cells was measured by CELLTITER96® Non-radioactive Cell Proliferation Assay (Promega Corporation; Madison, Wis., United States of America). Briefly, various wild type and mutant BRAF melanoma cells were seeded in 96 well plates and treated with pevonedistat, vemurafenib, or the combination pevonedistat and vemurafenib at various concentrations. Control cells were treated with DMSO. 96 hours following treatment, cells were stained with the dye solution according to the manufacturer's protocol. Absorbance was recorded at 570 nm and growth curves were established. […] Cells were counted every 24 hours using a COUNTESS™ Automated Cell Counter (INVITROGEN™, Carlsbad, Calif., United States of America), and harvested at the indicated times for PI staining and FACS analysis (cell cycle profile) or for immunoblotting.
The effects of pevonedistat, vemurafenib, and/or silencing of various cell cycle-associated proteins by siRNA on cell cycle distribution and rereplication were assessed by propidium iodide staining and flow cytometry of asynchronous melanoma cultures. […]

DM331 xenografts = test: Melanoma flank xenograft in nude mice; format: in vivo; conditions: vs. vehicle; PLX4720 in rodent diet 417 mg/kg
Protocol: All animal experiments were performed after approval of animal protocols by the Animal Care and Use Committee (ACUC) of the University of Virginia. Animals were housed and handled in accordance with the guidelines of the ACUC of the University of Virginia. The effect of pevonedistat on melanoma growth was tested in flank xenograft models. Foxn1^nu (20-25 g body weight, 4-5 weeks old females) athymic nude immune-deficient mice (Harlan Laboratories, now Envigo, Indianapolis, Ind., United States of America) were used in this study. Pevonedistat was dissolved in sterile 10% DMSO containing PBS (stock 1 mM), filtered, and stored in −20° C. until use. DM93, VMM39, SLM2, DM331, or SK-MEL-24 (2×10^6) melanoma cells were implanted in both flanks of immune-deficient mice (n=12 mice per group) and tumor growth was monitored until they grow to an average volume of 150-200 mm^3, and mice were randomized into groups for treatment. Animals were administered 0.2 mL pevonedistat solution (30 or 60 mg/kg body weight as indicated) intraperitoneally on a schedule of two cycles of five-day treatment followed by five treatment-free days, for 3 weeks, or more as indicated. Control animals were treated with an equal volume of sterile vehicle (10% DMSO in PBS). Where indicated, mice received control rodent diet, or rodent diet with 417 mg/kg PLX4720 (Research Diets, Inc. New Brunswick, N.J., United States of America). Tumors were measured with an electronic caliper every other day for 3 weeks post-drug injection. Animal weight was recorded once a week to detect any weight loss due to the toxicity of drug treatment or tumor burden. At the end of the treatment, animals were euthanized and tumors harvested for further processing. The results shown are mean tumor volumes±s.e.m; *p<0.05, **p<0.01, ***p<0.001.

VMM39 cells = test: Rereplication by propidium iodide staining and FACS; format: cell-based, human; conditions: retroviral overexpression of SET8 and/or p21 species
Protocol: The effects of pevonedistat, vemurafenib, and/or silencing of various cell cycle-associated proteins by siRNA on cell cycle distribution and rereplication were assessed by propidium iodide staining and flow cytometry of asynchronous melanoma cultures. Synchronization of cells was not employed to avoid bias and to be able to measure the impact of these perturbations on proliferating cancer cells. Briefly, asynchronous melanoma cell lines were treated with pevonedistat or vemurafenib, or transfected with si-CDT1, si-CDT2, si-SET8, si-p21, sigeminin, si-EMI1, or si-GL2 for a time ranging from 24 to 96 hours. Cells were washed with cold PBS, harvested, and fixed in 70% (v/v) ethanol. Cells were subsequently treated with 20 μg of DNase-free RNase and stained with propidium iodide according to instructions of the manufacturer. Samples were analyzed on a FACSCAN™ (Becton, Dickinson and Company, Franklin Lakes, N.J., United States of America) and G0-G1, S, and G2-M fractions were segmented, and apoptotic (sub-G1 DNA content) and rereplicating (>G2/M DNA content) fractions were determined using FLOWJO® (FLOWJO, LLC, Ashland, Oreg., United States of America) and ModFit (Verity Software House, Topsham, Me., United States of America) software.

CCCS(=O)(=O)Nc1ccc(F)c(C(=O)c2c[nH]c3ncc(-c4ccc(Cl)cc4)cc23)c1F [vemurafenib, N-(3-(5-(4-chlorophenyl)-1H-pyrrolo[2,3-b]pyridine-3-carbonyl)-2,4-difluorophenyl)propane-1-sulfonamide]
cells undergoing pevonedistat-induced rereplication after vemurafenib pretreatment (DM93 cells; DM93, pretreatment with vemurafenib for 24 hours, then 1 μM pevonedistat 48 hours): 16%
effect on cell cycle (DM93 cells; DM93 cells): robust G1 growth arrest and complete depletion of S-phase cells
sensitivity in vitro of cells from PLX4720-resistant tumors [1]: remained insensitive

CCCS(=O)(=O)Nc1ccc(F)c(C(=O)c2c[nH]c3ncc(Cl)cc23)c1F [PLX4720]
growth of DM331 xenografts (DM331 xenografts): inhibited

B1: Wild-type CDT1: wild-type CDT1 ectopically expressed from retrovirus (protein, UniProt Q9H211 1-546, looked up)
DNA replication factor Cdt1: MEQRRVTDFFARRRPGPPRIAPPKLACRTPSPARPALRAPASATSGSRKRARPPAAPGRDQARPPARRRLRLSVDEVSSPSTPEAPDIPACPSPGQKIKKSTPAAGQPPHLTSAQDQDTISELASCLQRARELGARVRALKASAQDAGESCTPEAEGRPEEPCGEKAPAYQRFHALAQPGLPGLVLPYKYQVLAEMFRSMDTIVGMLHNRSETPTFAKVQRGVQDMMRRRFEECNVGQIKTVYPASYRFRQERSVPTFKDGTRRSDYQLTIEPLLEQEADGAAPQLTASRLLQRRQIFSQKLVEHVKEHHKAFLASLSPAMVVPEDQLTRWHPRFNVDEVPDIEPAALPQPPATEKLTTAQEVLARARNLISPRMEKALSQLALRSAAPSSPGSPRPALPATPPATPPAASPSALKGVSQDLLERIRAKEAQKQLAQMTRCPEQEQRLQRLERLPELARVLRSVFVSERKPALSMEVACARMVGSCCTIMSPGEMEKHLLLLSELLPDWLSLHRIRTDTYVKLDKAADLAHITARLAHQTRAEEGL
Percent Rereplication (DM93 cells; retroviral overexpression of CDT1 species, DM93 per text): 51.4%

B2: Wild-type SET8: N-terminal FLAG-tagged Set8 protein encoded by a retrovirus (protein, UniProt Q9NQR1 1-393, looked up)
N-lysine methyltransferase …: MGEGGAAAALVAAAAAAAAAAAAVVAGQRRRRLGRRARCHGPGRAAGGKMSKPCAVEAAAAAVAATAPGPEMVERRGPGRPRTDGENVFTGQSKIYSYMSPNKCSGMRFPLQEENSVTHHEVKCQGKPLAGIYRKREEKRNAGNAVRSAMKSEEQKIKDARKGPLVPFPNQKSEAAEPPKTPPSSCDSTNAAIAKQALKKPIKGKQAPRKKAQGKTQQNRKLTDFYPVRRSSRKSKAELQSEERKRIDELIESGKEEGMKIDLIDGKGRGVIATKQFSRGDFVVEYHGDLIEITDAKKREALYAQDPSTGCYMYYFQYLSKTYCVDATRETNRLGRLINHSKCGNCQTKLHDIDGVPHLILIASRDIAAGEELLYDYGDRSKASIEAHPWLKH
modifications: N-terminal FLAG tag
notes: N-terminal FLAG-tagged Set8 protein encoded by a retrovirus
Percent Rereplication in DM93 (DM93 cells; retroviral overexpression of SET8 and/or p21 species): 3.87%
Percent Rereplication in VMM39 (VMM39 cells): 4.98%
